Measurements as given in patent US5541179A, “Tropon-2-one piperazine carboxamides as serotonergic agents” (American Home Products Corporation, priority 1995, dated 1996).

Experiments:
[1] = biological target: T1, 5-HT1A serotonin receptor (Rattus norvegicus, UniProt P19327); details: qualitative statement on reference standard; cited from earlier work
T1 construct: from tissue
T1 sequence (P19327 1-422): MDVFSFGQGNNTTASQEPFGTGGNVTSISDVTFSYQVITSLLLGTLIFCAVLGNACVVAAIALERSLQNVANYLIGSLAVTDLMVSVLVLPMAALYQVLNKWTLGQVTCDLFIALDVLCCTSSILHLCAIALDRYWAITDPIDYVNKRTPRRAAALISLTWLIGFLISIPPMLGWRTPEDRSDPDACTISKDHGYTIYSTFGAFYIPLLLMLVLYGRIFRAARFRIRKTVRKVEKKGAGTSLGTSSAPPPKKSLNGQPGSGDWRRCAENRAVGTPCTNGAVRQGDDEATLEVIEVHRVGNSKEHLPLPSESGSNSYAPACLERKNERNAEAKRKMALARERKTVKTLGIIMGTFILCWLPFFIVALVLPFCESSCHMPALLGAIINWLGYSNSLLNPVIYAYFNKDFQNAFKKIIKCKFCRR

[2] = biological target: T1, 5-HT1A serotonin receptor; experiment: 5-HT1A receptor binding, displacement of [^3 H]8-OHDPAT (procedure of Hall et al., J. Neurochem. 44, 1685 (1985))
From the text: High affinity for the serotonin 5-HT1A receptor was established by testing the claimed compound's ability to displace [^3 H]8-OHDPAT (dipropylaminotetralin) from the 5-HT1A serotonin receptor following the procedure of Hall et al., J. Neurochem.

Compound: O=C1CC2(CCCC2)CC(=O)N1CCCCN1CCN(c2ncccn2)CC1 [Buspirone]
- affinity for the 5-HT1A serotonin receptor subtype of the standard (in words) [1]: potent affinity

Compound: O=C(C(CCN1CCN(c2cccccc2=O)CC1)c1ccccc1)N1CCCCCC1 (centres unmarked) [Example 1, 2-[4-(4-Azepan-1-yl-4-oxo-3-phenyl-butyl)-piperazin-1-yl]-cyclohepta-2,4,6-trienone]
- IC50 [2]: 18.6 nM

Compound: C[C@H](CN1CCN(c2cccccc2=O)CC1)Nc1ccccn1 [Example 2, (R)-2-{4-[2-(Pyridin-2-ylamino)-propyyl}-piperazin-1-yl}-cyclohepta-2,4,6trienone]
- IC50 [2]: 19.8 nM

Compound: C[C@H](CN1CCN(c2cccccc2=O)CC1)N(C(=O)C1CC=CCC1)c1ccccn1 (stereo partly drawn) [Example 3, Cyclohex-3-enecarboxylic acid (R)-{1-methyl-2-[4-(7-oxo-cyclohepta-1,3,5-trienyl)-piperazin-1-yl]-ethyl}-(pyridin-2-yl)-amide]
- IC50 [2]: 861 nM

Compound: C[C@H](CN1CCN(c2cccccc2=O)CC1)N(C(=O)C1CCCCC1)c1ccccn1 [Example 4, Cyclohexanecarboxylic acid (R)-{1-methyl-2-[4-(7-oxo-cyclohepta-1,3,5-trienyl)-piperazin-1-yl]-ethyl}-(pyrilin-2-yl)-amide]
- IC50 [2]: 351 nM
